From patent US12077503B2, “Substituted cyclic amides and their use as herbicides” (FMC CORPORATION, priority 2015, dated 2024)
Read-outs that look alike come from different tables or passages of the source.

Experiments:
Test in all cases: Test B flooded paddy test
Type in all cases: in vivo
rice (Oryra sativa) = settings: Oryza sativa, 250 g ai/ha, Flood, read-out: Rice plant response rating
How it was run: (§1)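 Response scored visually against untreated controls, 0 = no effect and 100 = complete control, 13–15 d after treatment in the greenhouse. Compounds added to paddy water held 3 cm above soil surface. Treatment given at 2-leaf stage.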

[1] = test system: barnyardgrass (Echinochloa crus-galli); settings: Echinochloa crus-galli, 250 g ai/ha, Flood, read-out: Barnyardgrass plant response rating
How it was run: as §1

[2] = test system: sedge, umbrella (small-flower umbrella sedge, Cyperus difformis); settings: Cyperus difformis, 250 g ai/ha, Flood, read-out: Sedge, Umbrella plant response rating
How it was run: as §1

[3] = test system: ducksalad (Heteranthera limosa); settings: Heteranthera limosa, 250 g ai/ha, Flood, read-out: Ducksalad plant response rating
How it was run: as §1

[4] = 0 to 100 scale where 0 is no effect and 100 is complete control
[5] = scale of 0 to 100 where 0 is no effect and 100 is complete control

SMILES	pest or weed control at 250 g/ha (rice (Oryra sativa); [4]) [%]	pest or weed control at 250 g/ha [1, 4] [%]	pest or weed control at 250 g/ha [2, 4] [%]	pest or weed control at 250 g/ha [3, 4] [%]	pest or weed control at 250 g/ha (rice (Oryra sativa); [5]) [%]	pest or weed control at 250 g/ha [1, 5] [%]	pest or weed control at 250 g/ha [2, 5] [%]	pest or weed control at 250 g/ha [3, 5] [%]
COc1cc(C(F)(F)F)ccc1[C@H]1CNC(=O)[C@@H]1C(=O)Nc1ccccc1F [Compound 1202]	0	0	0	100	–	–	–	–
CN1C[C@H](c2csc3ccccc23)[C@@H](C(=O)Nc2cccc(F)c2F)C1=O [Compound 1115]	30	45	0	90	–	–	–	–
Cc1cc(C)cc([C@H]2CNC(=O)[C@@H]2C(=O)Nc2ccccc2C(F)(F)F)c1 [Compound 909]	–	–	–	–	0	40	0	70
Cc1c(F)cccc1NC(=O)[C@H]1C(=O)N(C)C[C@@H]1c1ccc(C(F)(F)F)nc1 [Compound 1197]	0	70	0	100	–	–	–	–
CSc1ccccc1NC(=O)[C@H]1C(=O)N(C)C[C@@H]1c1cccc(OC(F)(F)C(F)F)c1 [Compound 862]	–	–	–	–	0	0	0	90
CC(C)(C)c1ccc([C@H]2CNC(=O)[C@@H]2C(=O)Nc2cccc(F)c2F)cc1 [Compound 847]	–	–	–	–	0	0	0	90
COc1cc(C(F)(F)F)ccc1[C@H]1CN(C)C(=O)[C@@H]1C(=O)Nc1ccccc1F [Compound 858]	–	–	–	–	0	45	0	100
Cc1ccc([C@H]2CNC(=O)[C@]2(Br)C(=O)Nc2cccc(F)c2F)cc1F (racemic) [Compound 1073]	15	55	0	100	–	–	–	–
CC(C)c1cccc([C@H]2CN(C)C(=O)[C@@H]2C(=O)Nc2ccccc2S(C)(=O)=O)c1 [Compound 820]	–	–	–	–	0	60	0	75
CCc1cc(CC)cc([C@H]2CNC(=O)[C@@H]2C(=O)Nc2cccc(F)c2F)c1 [Compound 1139]	20	0	0	30	–	–	–	–
CN1C[C@H](c2cc(F)cc(F)c2)[C@@H](C(=O)Nc2ccccc2[S@@+](C)[O-])C1=O [Compound 872]	–	–	–	–	0	0	40	85
CSc1ccccc1NC(=O)[C@H]1C(=O)N(C)CC[C@@H]1c1ccc(C)cc1 [Compound 1222]	15	0	70	65	–	–	–	–
Cc1ccc([C@H]2CN(C)C(=O)[C@@H]2C(=O)Nc2cccc(F)c2F)cc1C [Compound 1039]	0	65	0	90	–	–	–	–
Cc1cc(C)cc([C@H]2CN(C)C(=O)[C@@H]2C(=O)Nc2ccccc2F)c1 [Compound 910]	–	–	–	–	0	70	0	85
Cc1cc([C@H]2CN(C)C(=O)[C@@H]2C(=O)Nc2ccc(F)c(F)c2F)ccc1Cl [Compound 931]	–	–	–	–	0	65	0	60
Cc1c(F)ccc([C@H]2CN(C)C(=O)[C@@H]2C(=O)Nc2ccccc2F)c1F [Compound 833]	–	–	–	–	0	45	0	85
CCc1cc([C@H]2CN(C)C(=O)[C@@H]2C(=O)Nc2cccc(F)c2F)cs1 [Compound 1157]	0	55	0	98	–	–	–	–
O=C1NC[C@H](c2csc(C(F)F)c2)[C@H]1C(=O)Nc1cccc(F)c1F [Compound 1119]	20	60	50	100	–	–	–	–

SMILES	pest or weed control at 250 g/ha (rice (Oryra sativa); [4]) [%]	pest or weed control at 250 g/ha [1, 4] [%]	pest or weed control at 250 g/ha [2, 4] [%]	pest or weed control at 250 g/ha [3, 4] [%]	pest or weed control at 250 g/ha (rice (Oryra sativa); [5]) [%]	pest or weed control at 250 g/ha [1, 5] [%]	pest or weed control at 250 g/ha [2, 5] [%]	pest or weed control at 250 g/ha [3, 5] [%]
Cc1cc([C@H]2CN(C)C(=O)[C@@H]2C(=O)Nc2ccccc2F)on1 [Compound 1195]	20	20	0	0	–	–	–	–
CCc1cc([C@H]2CNC(=O)[C@@H]2C(=O)Nc2cccc(F)c2F)cs1 [Compound 1155]	20	50	0	100	–	–	–	–
Cc1c(F)cccc1NC(=O)[C@H]1C(=O)NC[C@@H]1c1cccc(C(F)(F)F)c1 [Compound 826]	–	–	–	–	0	65	0	100
CN1C[C@H](c2cc(C(F)F)cs2)[C@@H](C(=O)Nc2cccc(F)c2F)C1=O [Compound 1121]	10	70	0	100	–	–	–	–
CN1C[C@H](c2cscn2)[C@@H](C(=O)Nc2cccc(F)c2F)C1=O [Compound 1113]	20	0	0	30	–	–	–	–
Cc1c(F)cccc1NC(=O)[C@H]1C(=O)N(C)C[C@@H]1c1ccc(F)cc1 [Compound 1235]	80	100	75	90	–	–	–	–
CC(C)COc1cccc([C@H]2CN(C)C(=O)[C@@H]2C(=O)Nc2ccccc2F)c1 [Compound 1028]	10	20	0	80	–	–	–	–
COc1cc([C@H]2CN(C)C(=O)[C@@H]2C(=O)Nc2ccccc2SC)cc(C(F)(F)F)c1 [Compound 857]	–	–	–	–	0	60	80	80
CN1C[C@H](c2cccc(F)c2)[C@@H](C(=O)Nc2ccccc2F)C1=O [Compound 822]	–	–	–	–	0	75	0	85
CN1CC[C@H](c2cccc(C(F)(F)F)c2)[C@@H](C(=O)Nc2cccc(F)c2Cl)C1=O [Compound 1158]	0	60	0	80	–	–	–	–
CN1C[C@H](c2ccc(C(F)(F)F)cc2)[C@@](F)(C(=O)Nc2cccc(F)c2F)C1=O (racemic) [Compound 1151]	0	0	0	0	–	–	–	–
Cc1c(F)ccc([C@H]2CN(C)C(=O)[C@@H]2C(=O)Nc2ccccc2S(C)(=O)=O)c1F [Compound 842]	–	–	–	–	0	65	0	100
CSc1ccccc1NC(=O)[C@H]1C(=O)N(C)C[C@@H]1c1ccc(OC(F)F)cc1 [Compound 1212]	0	0	0	95	–	–	–	–
Cc1cc([C@H]2CN(C)C(=O)[C@@H]2C(=O)Nc2ccccc2C(F)(F)F)ccc1Cl [Compound 932]	–	–	–	–	0	0	0	30
COc1c(F)ccc([C@H]2CNC(=O)[C@@H]2C(=O)Nc2cccc(F)c2F)c1Cl [Compound 882]	–	–	–	–	0	45	0	100
COc1c(F)ccc([C@H]2CNC(=O)[C@@H]2C(=O)Nc2ccccc2F)c1Cl [Compound 881]	–	–	–	–	15	45	0	100
COc1ccc([C@H]2CN(C)C(=O)[C@@H]2C(=O)Nc2cccc(F)c2F)c(OC)c1 [Compound 1209]	0	0	0	50	–	–	–	–
